Results on 3 compounds are retold here after US9732091B2, “Tryptophanol-derived oxazoloisoindolinones: small-molecule P53 activators” (UNIVERSIDADE DO PORTO, priority 2013, dated 2017).

Structures are written as SMILES.

One data set concerns MDA-MB-231 cells. Nature of the data set: apoptosis by flow cytometry (FITC-Annexin V and propidium iodide), MDA-MB-231. Type of data set: cell-based, human. Particulars: GI50, 24 hours. The method, then:
Apoptosis was analyzed by flow cytometry using FITC-Annexin V and propidium iodide. The effect of compounds was analyzed after 24 hours treatment using the concentration of GI50. Histograms represent one of two independent experiments; quantification of cells in apoptosis represents the mean±S.E.M. of two independent experiments.

A further data set deals with HCT116 p53^+/+. Nature of the data set: SRB growth inhibition assay in HCT116 p53^+/+ colon carcinoma cells. The settings on record: for GI50: HCT116 p53^+/+, 48 hours incubation, SRB, mean±S.E.M. Type of data set: cell-based, human. As for the experimental part: (§1) Tumor cells were plated at 5.0×10^3 cells/well in 96-well plates and incubated for 24 hours. Cells were then exposed to serial dilutions of SLMP53-1, CP-31398 or PRIMA-1 (from 1.85 to 150 μM). The effect of the compounds was analyzed following 48 hours incubation, using the sulforhodamine B (SRB) assay. The solvent DMSO corresponding to the maximum concentration used in these assays (0.025%) was included as control. The GI50 value, the concentration of compound that causes 50% growth inhibition, was calculated for the tested compounds. Results are the mean±S.E.M. of three independent experiments.

The test system of a further data set is MDA-MB-231 (p53R280K). Nature of the data set: SRB growth inhibition assay in MDA-MB-231 breast cancer cells. The settings on record: 48 hours incubation, mean±S.E.M. The data set is classed as cell-based, human. As for the experimental part: as §1, with “7.5×10^3” for “5.0×10^3”, “incubation period,” for “incubation,”, “value, which is” for “value,”
The test system of another data set is HCT116 p53^−/−. The data set can be described thus: SRB growth inhibition assay in HCT116 p53^−/− colon carcinoma cells. The data set is classed as cell-based, human. Particulars: 48 hours incubation, mean±S.E.M. As for the experimental part:
as §1

The conditions of data set [1]: Rippin et al. 2002; Jonhson et al. 2011; cited from earlier work.
Data set [2] concerns HCT116 p53^+/+ cells. The data set can be described thus: cell cycle analysis by flow cytometry (propidium iodide), HCT116 p53^+/+. Type of data set: cell-based, human. The settings on record: double GI50, 24 hours. As for the experimental part:
FIG. 3 illustrates the effect of SLMP53-1 on cell cycle progression of HCT116 p53^+/+ cells. Cell cycle phases were analyzed by flow cytometry using propidium iodide and quantified using ModFit LT software (Verity Software House Inc., Topsham, USA). Effect of compounds (double GI50) was analyzed after 24 hours treatment. Histograms represent one of two independent experiments; quantification of cell cycle phases represents the mean±S.E.M. of two independent experiments.
(In flow cytometry, cells or beads pass a laser one at a time.)

Data set [3] relates to HCT116 p53^+/+ cells. Nature of the data set: apoptosis by flow cytometry (FITC-Annexin V and propidium iodide), HCT116 p53^+/+. The data set is classed as cell-based, human. Particulars: GI50 and double GI50, 24 hours. As for the experimental part:
Apoptosis was analyzed by flow cytometry using FITC-Annexin V and propidium iodide. The effect of compounds was analyzed after 24 hours treatment using the concentration of GI50 and double GI50. Histograms represent one of two independent experiments; quantification of cells in apoptosis represents the mean±S.E.M. of two independent experiments.

Another data set has as its target T1, human wt p53 (Homo sapiens, UniProt P04637).
T1 construct: expressed in transfected cells
Nature of the data set: yeast-based assay, yeast cells expressing human wt p53 (growth by CFU counts, cell cycle, actin Western blot). As for the experimental part: FIG. 1 illustrates that SLMP53-1 and SLMP53-2 increase the p53 effects in yeast. Yeast cells expressing human wt p53 and transformed with the empty vector (control yeast) were incubated in selective induction medium in the presence of 0.1-25 μM compound or DMSO only, for 42 hours. (A) Effect of 10 μM SLMP53-1 and SLMP53-2 on the p53-induced yeast growth inhibition. Results are plotted setting as one unit the p53-induced growth inhibition in the presence of DMSO only. Growth was estimated by colony-forming unit (CFU) counts. […] (B) Dose-response curve for SLMP53-1 in yeast cells expressing human p53 and control yeast. Cells were incubated in selective medium with 0.1-25 μM of SLMP53-1 or DMSO only. Results are plotted setting as 100% growth inhibition the number of CFU obtained in the presence of DMSO only. Data are mean±S.E.M. of three independent experiments (*P<0.05; unpaired Student's t-test). (C) Effect of SLMP53-1 and SLMP53-2 on p53-induced S-phase cell cycle arrest in yeast. Cell cycle phases were analyzed by flow cytometry using Sytox Green and quantified using ModFit LT software; quantification of cell cycle phases represent the mean values. (D) Increase of p53-induced actin protein expression levels by SLMP53-1 and SLMP53-2 in yeast expressing p53. Western Blot band intensity was quantified using Pgk1p as loading control (with Bio-Profile Bio-1D++ software).
Using a yeast-based screening approach, the chiral compounds SLMP53-1 and SLMP53-2 were identified as potential activators of wt p53, from a chemical library of tryptophanol-derived oxazoloisoindolinones with general formula (I) shown in FIG. 1, wherein X, R^1, R^2, R^3, R^4, R^5, R^6, R^7, R^8, R^9 and R^10 are as defined herein, as well as their stereoisomers, enantiomers, ra.cemates, tautomers thereof or mixtures thereof; or a pharmaceutically acceptable salt, solvate or prodrug thereof. In the yeast cell model, compounds SLMP53-1 and SLMP53-2 increased the previously reported (Coutinho et al. FEBS Lett. 2009, 583, 3582-3588) p53-induced growth inhibition (FIGS. 1A and B) and S-phase cell cycle arrest (FIG. 1C).
Background: In western blotting, separated proteins are transferred to a membrane and probed.

Setting [4] is: HCT116 p53^+/+ vs HCT116 p53^−/−.

T1 sequence (P04637 whole entry): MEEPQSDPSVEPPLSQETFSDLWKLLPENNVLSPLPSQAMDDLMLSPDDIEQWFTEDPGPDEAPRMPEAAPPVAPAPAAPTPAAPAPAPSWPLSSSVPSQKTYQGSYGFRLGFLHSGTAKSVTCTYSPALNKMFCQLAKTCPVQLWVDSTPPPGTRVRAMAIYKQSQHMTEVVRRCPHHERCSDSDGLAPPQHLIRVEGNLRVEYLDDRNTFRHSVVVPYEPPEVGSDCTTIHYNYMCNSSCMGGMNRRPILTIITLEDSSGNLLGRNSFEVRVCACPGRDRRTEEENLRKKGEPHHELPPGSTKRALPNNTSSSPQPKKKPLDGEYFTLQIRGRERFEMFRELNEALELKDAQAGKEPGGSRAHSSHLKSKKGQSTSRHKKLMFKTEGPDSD

On to `O=C1C2CCN(CC2)C1(CO)CO` [PRIMA-1], for which the apoptosis entry with MDA-MB-231 cells is “apoptotic cell death”. In the data set on HCT116 p53^+/+ (setting [4]), the “p53 dependence of anti-proliferative effect” value was “p53-independent”. Further, the GI50 with HCT116 p53^+/+ was determined as 19.9 ± 4 µM; with MDA-MB-231 (p53R280K), 29.8 ± 3.1 µM; in the data set with HCT116 p53^−/− it was 13.1 ± 2 µM.
Regarding `COc1ccc(/C=C/c2nc(NCCCN(C)C)c3ccccc3n2)cc1` [CP-31398], in data set [1], the “cytotoxic and genotoxic effects (reported)” value is “cytotoxic and genotoxic effects have been reported”. Also, the apoptosis result in the data set on MDA-MB-231 cells and in the data set on HCT116 p53^+/+ cells [3] was “apoptotic cell death” throughout. In addition, the “GI50 in HCT116 p53^+/+ cells lower than in HCT116 p53^−/− cells” value in the data set with HCT116 p53^+/+ (setting [4]) was found to be 2 fold. Besides, the “p53 dependence of anti-proliferative effect” value in the data set with HCT116 p53^+/+ (setting [4]) is “p53-dependent anti-proliferative effect”. In addition, the 50% growth inhibitory concentration (GI50) worked out at 3.4 ± 0.1 µM with HCT116 p53^+/+, 2.3 ± 0.9 µM with MDA-MB-231 (p53R280K) and 7.3 ± 0.6 µM with HCT116 p53^−/−. The cell cycle progression entry in the data set with HCT116 p53^+/+ cells [2] is “G0/G1-phase cell arrest”.
On to `C[C@@]12OC[C@@H](Cc3c[nH]c4ccccc34)N1C(=O)c1ccccc12` [SLMP53-2], for which the p53-induced growth inhibition result on human wt p53 (yeast expressing human wt p53, 10 μM, 42 hours, vs DMSO only) was “increased”. Besides, at human wt p53 (yeast expressing human wt p53, flow cytometry), the “p53-induced S-phase cell cycle arrest” value is listed as “increased”. Also, the actin protein levels result on human wt p53 (yeast expressing p53, Western blot, vs DMSO only) is reported as “increased the actin protein levels”.

Usually GI50 stands for the concentration that inhibits growth by half. A lower GI50 goes with more potent growth inhibition.
